Data reported in patent US20220009914A1, “Analogs of Nitrofuran Antibiotics to Combat Resistance” (The Trustees of Indiana University, priority 2020, published 2022).
Where two headings read alike, the source gives them in different places.

Legend:
[1] = tested on: Pseudomonas aeruginosa strain NCTC 10332 (ATCC #10145); experiment: bacterial proliferation assay, P. aeruginosa; format: cell-based; conditions: read-out: Bacterial Proliferation EC50 P. aeruginosa
Protocol: (§1) All compounds were evaluated for inhibiting the proliferation of E. coli and each of the ESKAPE bacteria. Results presented represent the averages of EC50 values obtained from at least four replicates. Evaluating compounds for inhibition of bacterial cell proliferation.
(§2) Growth Media: E. coli were grown with LB medium and all ESKAPE bacteria were grown in Brain Heart Infusion (BHI) medium (Becton, Dickinson and Company), with all liquid cultures supplemented with 25 mg/L Ca^2+ and 12.5 mg/L Mg^2+ to mimic physiological free concentrations of these cations. A 10 mg/mL Ca^2+ stock solution was prepared by dissolving 1.84 g of CaCl2.2H2O in 50 mL of deionized water, and a 10 mg/mL Mg^2+ stock solution was prepared by dissolving 4.18 g of MgCl2.6H2O in 50 mL deionized water—filter sterilized using 0.2 μm cellulose-acetate filters. 2.5 mL of the sterile 10 mg/mL Ca^2+ stock and 1.25 mL of the sterile 10 mg/mL Mg^2+ stock solutions were added per 1 L of autoclaved LB or BHI media to obtain 25 mg/L Ca^2+ and 12.5 mg/L Mg^2+ ions, respectively.
(§3) General Assay Protocol: Stock bacterial cultures were streaked onto LB or BHI agar plates and grown overnight at 37° C. Fresh aliquots of cation supplemented media were inoculated with single bacterial colonies and the cultures were grown overnight at 37° C. with shaking (240 rpm). The following morning, cultures were diluted 10-fold into fresh media and grown at 37° C. until bacteria had reached mid-log phase growth (OD600˜0.4-0.6). The cultures were then diluted into fresh media to achieve final OD600 readings of 0.017. Aliquots of these diluted cultures (30 μL) were added to clear, flat-bottom 384-well polystyrene plates that were previously stamped with 0.5 μL of test compounds in 20 μL of media (yielding initial OD600=0.01 bacterial cultures). All compounds were tested in dose-response with concentration ranges during the proliferation assays from 100 μM to 46 nM (3-fold dilution series). A second set of baseline control plates were prepared analogously, but without any bacteria added, to correct for possible compound absorbance and/or precipitation. […] Plates were then read at 600 nm using a Molecular Devices SpectraMax Plus384 microplate reader. […] Results presented represent the averages of EC50 values obtained from at least four replicates.
(§4) Evaluating analogs for inhibiting the growth of E. coli and the ESKAPE bacteria. Analogs were initially tested for antibacterial efficacy against representative strains of antibiotic-sensitive E. coli and the ESKAPE bacteria. To determine compound efficacy, bacterial proliferation assays were carried out in liquid media culture supplemented with physiological concentrations of free calcium and magnesium cations. For these assays, bacterial cultures (OD600=0.01) were exposed to test compounds in 8-point, 3-fold dilution series (100 μM to 46 nM concentration range), in 384-well plates. After addition of compounds to cultures, the plates were sealed with Breathe-Easy gas permeable membranes and allowed to grow to mid-log phase (OD600˜0.4-0.6), whereupon final OD600 readings were taken to assess for bacterial growth and inhibition.

[2] = tested on: Enterococcus faecium strain NCTC 7171 (ATCC #19434); experiment: bacterial proliferation assay, E. faecium; format: cell-based; conditions: read-out: Bacterial Proliferation EC50 E. faecium
Protocol: as §1, §2, §3, §4

E. coli GroEL/ES = molecular target: T1, E. coli GroEL/ES (Escherichia coli, UniProt P0A6F5); experiment: GroEL/ES-mediated dRho refolding assay; format: biochemical
T1 construct: made in house; host or cells: GroEL in NEB 5-alpha E. coli; GroES in E. coli BL21 (DE3)
T1 sequence (P0A6F5 2-548): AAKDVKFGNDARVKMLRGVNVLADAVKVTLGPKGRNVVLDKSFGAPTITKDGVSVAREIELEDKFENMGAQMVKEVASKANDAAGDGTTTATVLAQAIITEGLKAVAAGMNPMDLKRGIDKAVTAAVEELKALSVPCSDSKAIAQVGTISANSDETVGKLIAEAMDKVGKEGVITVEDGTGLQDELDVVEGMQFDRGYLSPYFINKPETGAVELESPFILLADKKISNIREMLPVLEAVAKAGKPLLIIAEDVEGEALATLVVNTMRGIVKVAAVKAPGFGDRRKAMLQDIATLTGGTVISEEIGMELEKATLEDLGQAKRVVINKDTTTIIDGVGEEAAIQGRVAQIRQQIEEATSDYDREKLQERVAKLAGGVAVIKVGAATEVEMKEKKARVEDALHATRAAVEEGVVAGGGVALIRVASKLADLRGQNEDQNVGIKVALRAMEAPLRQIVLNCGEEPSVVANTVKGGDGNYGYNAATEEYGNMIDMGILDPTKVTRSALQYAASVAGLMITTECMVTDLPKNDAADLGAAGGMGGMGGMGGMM
Protocol: Evaluating compounds for inhibition in the GroEL/ES-mediated dRho refolding assay. Reagent preparation: For this assay, five primary reagent stocks were prepared: 1) GroEL/ES-dRho binary complex stock; 2) ATP initiation stock; 3) thiocyanate enzymatic assay stock; 4) formaldehyde quench stock; 5) ferric nitrate reporter stock. Denatured rhodanese (dRho) was prepared by 3-fold dilution of rhodanese (Roche product #R^1756, diluted to 10 mg/mL with H2O) with denaturant buffer (12 M Urea, 50 mM Tris-HCl, pH 7.4, and 10 mM DTT). Rhodanese was completely denatured by incubating at room temperature for >45 min. The binary complex solution was prepared by slowly adding the dRho stock to a stirring stock of concentrated GroEL in modified folding buffer (50 mM Tris-HCl, pH 7.4, 50 mM KCl, 10 mM MgCl2, 5 mM Na2S2O3, and 1 mM DTT). The solution was centrifuged at 16,000×g for 5 minutes, and the supernatant was collected and added to a solution of GroES in modified folding buffer to give final protein concentrations of 100 nM GroEL, 120 nM GroES, and 80 nM dRho. The binary complex stock was prepared immediately prior to use. For the ATP initiation stock, ATP solid was diluted into modified folding buffer to a final concentration of 2.0 mM. The thiocyanate enzymatic assay stock was prepared to contain 70 mM KH2PO4, 80 mM KCN, and 80 mM Na2S2O3 in water. The formaldehyde quench solution contained 30% formaldehyde in water.
Assay Protocol: First, 10 μL aliquots of the GroEL/ES-dRho complex stock were dispensed into clear, flat-bottom 384-well polystyrene plates. […] After incubating for 40 minutes at 37° C. for the refolding cycle, 30 μL of the thiocyanate enzymatic assay stock was added and incubated for 60 min at room temperature for the refolded rhodanese enzymatic reporter reaction. The reporter reaction was quenched by adding 10 μL of the formaldehyde quench stock, and then 40 μL of the ferric nitrate reporter stock was added to quantify the amount of thiocyanate produced during the enzymatic reporter reaction, which is proportional to the amount of dRho refolded by GroEL/ES. After incubating at room temperature for 15 min, the absorbance by Fe(SCN)3 was measured at 460 nm using a Molecular Devices SpectraMax Plus384 microplate reader. A second set of baseline control plates were prepared analogously, but without GroEL/ES-dRho protein binary solution, to correct for possible interference from compound absorbance or turbidity. […] Results presented represent the averages of IC50 values obtained from at least four replicates.
Evaluating compounds for inhibition in the GroEL/ES-mediated dRho refolding assay. All compounds were evaluated for inhibiting E. coli GroEL/ES-mediated refolding of the denatured Rho reporter enzyme as per our previously reported procedure. Results presented represent the averages of IC50 values obtained from at least four replicates.

[3] = read-out: GroEL/ES-dRho Refolding IC50

| Structure (SMILES) | EC50 [1] [µM] | EC50 [2] [µM] | IC50 (E. coli GroEL/ES) [µM] | IC50 (E. coli GroEL/ES; [3]) [µM] |
| --- | --- | --- | --- | --- |
| O=C(N/N=C/c1ccccc1)c1ccccc1 [Compound 38, N′-benzylidenebenzohydrazide] | > 100 | > 100 | > 250 |  |
| O=C(N/N=C/c1ccc([N+](=O)[O-])o1)c1cccc2ccccc12 [Compound 22, N′-((5-nitrofuran-2-yl)methylene)-1-naphthohydrazide] | > 100 | 16 | 73 |  |
| O=C(N/N=C/c1ccc(O)c2ncccc12)c1ccc(O)cc1 [Compound 7, 4-hydroxy-N′-((8-hydroxyquinolin-5-yl)methylene)benzohydrazide] | > 100 | > 100 | 9 |  |
| COc1ccc(C(=O)N/N=C/c2cccc3ccccc23)cc1 [Compound 33, 4-methoxy-N′-(naphthalen-1-ylmethylene)benzohydrazide] | > 100 | > 100 | 129 |  |
| O=C(N/N=C/c1ccc(O)c2ncccc12)c1cccc(Oc2ccccc2)c1 [Compound 11, N′-((8-hydroxyquinolin-5-yl)methylene)-3-phenoxybenzohydrazide] | > 100 | > 100 | 7.8 |  |
| CCN(CC)S(=O)(=O)c1cccc(C(=O)N/N=C/c2ccc(O)c3ncccc23)c1 [Compound 12, N,N-diethyl-3-(2-((8-hydroxyquinolin-5-yl)methylene)hydrazine-1-carbonyl)benzenesulfonamide] | 85 | > 100 | 10 |  |
| O=C(N/N=C/c1ccc(O)c2ncccc12)c1ccccc1Oc1ccccc1 [Compound 10, N′-((8-hydroxyquinolin-5-yl)methylene)-2-phenoxybenzohydrazide] | 81 | > 100 | 4.5 |  |
| O=C(N/N=C/c1ccc([N+](=O)[O-])o1)c1ccccc1 [Compound 18, N′-((5-nitrofuran-2-yl)methylene)benzohydrazide] | > 100 | 31 | 100 |  |
| COc1ccc(C(=O)N/N=C/c2cccc3ncccc23)cc1 [Compound 31, 4-methoxy-N′-(quinolin-5-ylmethylene)benzohydrazide] | > 100 | > 100 | > 250 |  |
| O=C(N/N=C/c1ccc([N+](=O)[O-])o1)c1ccc(NS(=O)(=O)c2ccc(Br)cc2)cc1 [Compound 27, 4-bromo-N-(4-(2-((5-nitrofuran-2-yl)methylene)hydrazine-1-carbonyl)phenyl)benzenesulfonamide] | > 100 | > 100 | 59 |  |
| O=C1CN(/N=C/c2ccc([N+](=O)[O-])o2)C(=O)N1 [Nitrofurantoin, reference compound] | > 100 | 38 | > 250 |  |
| O=C(N/N=C/c1ccc(O)cc1)c1ccccc1 [Compound 36, N′-(4-hydroxybenzylidene)benzohydrazide] | > 100 | > 100 | > 250 |  |
| O=C(N/N=C/c1ccc(O)c2ncccc12)c1ccccc1 [Compound 5, N′-((8-hydroxyquinolin-5-yl)methylene)benzohydrazide] | > 100 | > 100 | 176 |  |
| O=C(N/N=C/c1ccc([N+](=O)[O-])o1)c1ccc(O)cc1 [Nifuroxazide, reference compound] | > 100 | 8.1 | 133 |  |
| O=C(N/N=C/c1ccc([N+](=O)[O-])o1)c1ccc(Cl)s1 [Compound 17, 5-chloro-N′-((5-nitrofuran-2-yl)methylene)thiophene-2-carbohydrazide] | > 100 | 12 |  | 60 |
| O=C(N/N=C/c1ccc(O)c2ncccc12)c1ccc(NS(=O)(=O)c2ccc(Br)cc2)cc1 [Compound 14, 4-bromo-N-(4-(2-((8-hydroxyquinolin-5-yl)methylene)hydrazine-1-carbonyl)phenyl)benzenesulfonamide] | > 100 | > 100 | 1.8 |  |
| O=C(N/N=C/c1ccc(O)c2ncccc12)c1cccs1 [Compound 3, N′-((8-hydroxyquinolin-5-yl)methylene)thiophene-2-carbohydrazide] | > 100 | > 100 | 38 |  |
| CN(C)c1ccc(C(=O)N/N=C/c2ccc([N+](=O)[O-])o2)cc1 [Compound 21, 4-(dimethylamino)-N′-((5-nitrofuran-2-yl)methylene)benzohydrazide] | > 100 | > 100 |  | 26 |
| COc1ccc(C(=O)N/N=C/c2ccc(O)c3ccccc23)cc1 [Compound 29, N′-((4-hydroxynaphthalen-1-yl)methylene)-4-methoxybenzohydrazide] | > 100 | > 100 | 117 |  |
| O=C(N/N=C/c1ccc([N+](=O)[O-])o1)c1cccc(Oc2ccccc2)c1 [Compound 24, N′-((5-nitrofuran-2-yl)methylene)-3-phenoxybenzohydrazide] | > 100 | 11 | 50 |  |
